Legend:
[1] = refractive index (Na D-line) (dimensionless); mn = molality of the nth substance listed, in mol/kg; details: 101 kPa, Liquid, Standard Abbe refractometry
[2] = refractive index (Na D-line) (dimensionless); details: 101.33 kPa, Liquid, Standard Abbe refractometry
[3] = refractive index (Na D-line) (dimensionless); wn = mass fraction of the nth substance listed; details: 101 kPa, Liquid, Standard Abbe refractometry, w2 = 0

O=S(=O)([O-])[O-].[Mg+2] [magnesium sulfate] + O
refractive index, [1]
Details	288.15 K	298.15 K	308.15 K	318.15 K
m1 = 0.2096	1.33858	1.33762	1.33629	1.33491
m1 = 0.3448	1.34163	1.34072	1.3393	1.33803
m1 = 0.5911	1.3471	1.34594	1.34463	1.34335
m1 = 0.7832	1.35115	1.35009	1.34872	1.34735
m1 = 0.9997	1.35558	1.35438	1.35295	1.3516
m1 = 1.19	1.35934	1.3581	1.35667	1.35532
m1 = 1.379	1.36292	1.36174	1.36037	1.35894
m1 = 1.621	1.3674	1.36613	1.36468	1.36342
m1 = 1.867	1.37176	1.37039	1.36899	1.3677
m1 = 2.12	1.376	1.37469	1.3732	1.37185
m1 = 2.36	1.37993	1.37853	1.37709	1.37586
m1 = 2.592	1.38344	1.38211	1.38069	1.37944
m1 = 2.859	–	1.38613	1.38461	1.38352
m1 = 3.087	–	1.38927	1.3878	1.38662
m1 = 3.347	–	–	1.39151	1.39026
m1 = 3.579	–	–	1.3945	1.39328
m1 = 3.807	–	–	–	1.39614
m1 = 3.998	–	–	–	1.39817

O [water] + O=S(=O)([O-])[O-].[Cu+2]
[1], m2 = 0
Details	refractive index
288.15 K	1.33339
298.15 K	1.33248
308.15 K	1.33128
318.15 K	1.32979

CCO [ethanol]
[2]
Details	refractive index
288.15 K	1.36344
298.15 K	1.35922
308.15 K	1.35477
318.15 K	1.35068

O [water] + CCO
[3]
Details	refractive index
288.15 K	1.33339
298.15 K	1.33248
308.15 K	1.33128
318.15 K	1.32979

O [water] + O=S(=O)([O-])[O-].[Mg+2]
[1], m2 = 0
Details	refractive index
288.15 K	1.33339
298.15 K	1.33248
308.15 K	1.33128
318.15 K	1.32979

O [water] + O=S(=O)([O-])[O-].[Li+].[Li+]
[1], m2 = 0
Details	refractive index
288.15 K	1.33339
298.15 K	1.33248
308.15 K	1.33128
318.15 K	1.32979

O=S(=O)([O-])[O-].[Li+].[Li+] [lithium sulfate] + O
refractive index, [1]
Details	288.15 K	298.15 K	308.15 K	318.15 K
m1 = 0.252	1.3383	1.33727	1.33612	1.33446
m1 = 0.4681	1.34212	1.34096	1.33987	1.33812
m1 = 0.7337	1.34651	1.34534	1.34419	1.3426
m1 = 0.9917	1.35062	1.34944	1.34829	1.3467
m1 = 1.245	1.3544	1.35316	1.35198	1.35056
m1 = 1.468	1.35752	1.35628	1.35518	1.35375
m1 = 1.756	1.3614	1.36011	1.35905	1.35765
m1 = 1.757	1.36143	1.36015	1.35909	1.35767
m1 = 1.939	1.36365	1.36242	1.36134	1.35998
m1 = 2.124	1.36601	1.36472	1.36368	1.36227
m1 = 2.306	1.36812	1.36691	1.36574	1.36453
m1 = 2.542	1.3709	1.36964	1.3685	1.3672
m1 = 2.798	1.3736	1.37243	1.37124	1.37003
m1 = 2.983	1.37551	1.37442	1.37316	1.37206
m1 = 3.158	1.37704	–	–	–
m1 = 3.22	1.37774	–	–	–

O [water]
[2]
Details	refractive index
288.15 K	1.33339
298.15 K	1.33248
308.15 K	1.33128
318.15 K	1.32979

O=S(=O)([O-])[O-].[Cu+2] [copper sulfate] + O
refractive index, [1]
Details	288.15 K	298.15 K	308.15 K	318.15 K
m1 = 0.1346	1.33752	1.33658	1.33528	1.33371
m1 = 0.3007	1.34217	1.34125	1.33987	1.33834
m1 = 0.4408	1.34604	1.3451	1.3436	1.34204
m1 = 0.5896	1.35008	1.34915	1.34753	1.34587
m1 = 0.7359	1.35392	1.35287	1.35129	1.34951
m1 = 0.859	1.35712	1.35606	1.35427	1.35249
m1 = 1.016	1.36104	1.36002	1.35816	1.35632
m1 = 1.179	1.3651	1.36398	1.36209	1.36027
m1 = 1.301	1.36803	1.367	1.365	1.36305
m1 = 1.456	–	1.3706	1.36872	1.36664
m1 = 1.579	–	–	1.37162	1.36952
m1 = 1.736	–	–	–	1.37296
m1 = 1.891	–	–	–	1.37632
m1 = 2.058	–	–	–	1.38013
